Test results published in ChEMBL document CHEMBL1949641, “Anti-inflammatory mechanism of 15,16-epoxy-3α-hydroxylabda-8,13(16),14-trien-7-one via inhibition of LPS-induced multicellular signaling pathways” (J Nat Prod, 2012).
Calls of active or inactive are those of the source. No cut-off for these calls is given here.

Key:
[1] = system: RAW264.7; test: Inhibition of NF-kappaB transcriptional activity expressed in mouse RAW264.7 cells assessed as inhibition of LPS-induced secretory alkaline phosphatase expression at 10 uM treated 2 hrs before LPS challenge measured after 18 hrs; format: cell-based
[2] = system: RAW264.7; test: Inhibition of NF-kappaB transcriptional activity expressed in mouse RAW264.7 cells assessed as inhibition of LPS-induced secretory alkaline phosphatase expression treated 2 hrs before LPS challenge measured after 18 hrs; format: cell-based
[3] = system: RAW264.7; test: Cytotoxicity against mouse RAW264.7 cells assessed as cell viability up to 50 uM after 24 hrs by MTT assay; format: cell-based; conditions: raw264.7, 24 h
[4] = system: RAW264.7; test: Antiinflammatory activity in mouse RAW264.7 cells assessed as inhibition of LPS-induced nitric oxide production treated 2 hrs before LPS challenge measured after 18 hrs by Griess reaction method; format: functional, cell-based
[5] = system: RAW264.7; test: Antiinflammatory activity in mouse RAW264.7 cells assessed as inhibition of LPS-induced iNOS expression treated 2 hrs before LPS challenge measured after 18 hrs by Western blotting; format: functional, cell-based
[6] = system: RAW264.7; test: Antiinflammatory activity in mouse RAW264.7 cells assessed as inhibition of LPS-induced COX2 expression treated 2 hrs before LPS challenge measured after 18 hrs by Western blotting; format: functional, cell-based
[7] = system: RAW264.7; test: Inhibition of NF-kappaB transcriptional activity expressed in mouse RAW264.7 cells assessed as inhibition of LPS-induced secretory alkaline phosphatase expression at 5 uM treated 2 hrs before LPS challenge measured after 18 hrs; format: cell-based
[8] = system: RAW264.7; test: Inhibition of NF-kappaB transcriptional activity expressed in mouse RAW264.7 cells assessed as inhibition of LPS-induced secretory alkaline phosphatase expression at 15 uM treated 2 hrs before LPS challenge measured after 18 hrs; format: cell-based
[9] = system: RAW264.7; test: Inhibition of NF-kappaB transcriptional activity expressed in mouse RAW264.7 cells assessed as inhibition of LPS-induced secretory alkaline phosphatase expression at 25 uM treated 2 hrs before LPS challenge measured after 18 hrs; format: cell-based
[10] = system: RAW264.7; test: Inhibition of NF-kappaB transcriptional activity expressed in mouse RAW264.7 cells assessed as inhibition of LPS-induced secretory alkaline phosphatase expression at 50 uM treated 2 hrs before LPS challenge measured after 18 hrs; format: cell-based
[11] = system: RAW264.7; test: Inhibition of NF-kappaB activation in mouse RAW264.7 cells assessed as inhibition of LPS-induced IkappaBalpha phosphorylation at 50 uM treated 2 hrs before LPS challenge measured after 15 to 20 mins by Western blotting; format: cell-based
[12] = system: RAW264.7; test: Inhibition of NF-kappaB activation in mouse RAW264.7 cells assessed as protection of LPS-induced IkappaBalpha degradation at 50 uM treated 2 hrs before LPS challenge measured after 10 to 20 mins by Western blotting; format: cell-based
[13] = system: RAW264.7; test: Inhibition of LPS-induced NFkappaB/AP-1 DNA binding activity in mouse RAW264.7 cells treated 2 hrs before LPS challenge measured after 1 hr by electrophoretic mobility shift assay; format: cell-based
[14] = target: T1, Nuclear factor NF-kappa-B p105 subunit (Mus musculus) (UniProt P25799); test: Inhibition of LPS-induced NF-kappaB p50 nuclear translocation in mouse RAW264.7 cells treated 2 hrs before LPS challenge measured up to 1 hr Western blot analysis; format: cell-based
T1 sequence (whole entry): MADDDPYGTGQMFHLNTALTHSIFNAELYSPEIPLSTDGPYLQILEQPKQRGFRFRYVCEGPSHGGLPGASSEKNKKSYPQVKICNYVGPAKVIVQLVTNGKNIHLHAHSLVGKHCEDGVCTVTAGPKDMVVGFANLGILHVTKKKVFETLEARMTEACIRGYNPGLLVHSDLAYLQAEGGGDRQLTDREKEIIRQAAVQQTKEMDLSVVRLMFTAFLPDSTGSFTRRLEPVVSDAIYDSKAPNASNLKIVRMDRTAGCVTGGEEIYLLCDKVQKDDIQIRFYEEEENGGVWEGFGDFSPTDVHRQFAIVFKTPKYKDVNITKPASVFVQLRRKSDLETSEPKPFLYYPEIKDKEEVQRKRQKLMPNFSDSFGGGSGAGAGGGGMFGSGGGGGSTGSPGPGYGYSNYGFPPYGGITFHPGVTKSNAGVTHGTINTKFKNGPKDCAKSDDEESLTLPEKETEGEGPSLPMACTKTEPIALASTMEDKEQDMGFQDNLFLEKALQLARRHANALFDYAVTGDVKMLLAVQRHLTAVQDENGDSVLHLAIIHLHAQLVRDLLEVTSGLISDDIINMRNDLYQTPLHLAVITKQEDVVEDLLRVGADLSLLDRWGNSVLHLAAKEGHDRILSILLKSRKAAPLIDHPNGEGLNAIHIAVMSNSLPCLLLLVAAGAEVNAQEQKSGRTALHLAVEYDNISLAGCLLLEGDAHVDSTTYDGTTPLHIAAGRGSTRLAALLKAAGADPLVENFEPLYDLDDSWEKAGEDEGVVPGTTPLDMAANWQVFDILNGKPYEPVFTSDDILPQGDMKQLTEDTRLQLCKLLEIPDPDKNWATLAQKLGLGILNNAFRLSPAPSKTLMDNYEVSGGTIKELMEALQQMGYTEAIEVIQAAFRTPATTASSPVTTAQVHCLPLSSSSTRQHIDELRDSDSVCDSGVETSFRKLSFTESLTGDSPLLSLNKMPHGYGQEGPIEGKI

[15] = target: Transcription factor p65 (Mus musculus) (UniProt Q04207); test: Inhibition of LPS-induced NF-kappaB p65 nuclear translocation in mouse RAW264.7 cells treated 2 hrs before LPS challenge measured up to 1 hr Western blot analysis; format: cell-based
[16] = system: RAW264.7; test: Antiinflammatory activity in mouse RAW264.7 cells assessed as inhibition of LPS-induced TNFalpha by ELISA; format: functional, cell-based
[17] = system: RAW264.7; test: Inhibition of LPS-induced Akt phosphorylation in mouse RAW264.7 cells treated 2 hrs before LPS challenge measured after 15 to 30 mins by Western blot analysis; format: cell-based
[18] = system: RAW264.7; test: Inhibition of LPS-induced NF-kappaB activation in mouse RAW264.7 cells assessed as inhibition p38alpha/beta phosphorylation at 50 uM treated 2 hrs before LPS challenge measured after 30 mins by Western blot analysis; format: cell-based
[19] = system: RAW264.7; test: Inhibition of LPS-induced NF-kappaB activation in mouse RAW264.7 cells assessed as inhibition JNK phosphorylation at 50 uM treated 2 hrs before LPS challenge measured after 30 mins by Western blot analysis; format: cell-based
[20] = system: RAW264.7; test: Inhibition of LPS-induced NF-kappaB activation in mouse RAW264.7 cells assessed as inhibition ERK phosphorylation at 50 uM treated 2 hrs before LPS challenge measured after 10 to 30 mins by Western blot analysis; format: cell-based

Transcription factor p65 (Mus musculus), sequence (Q04207 whole entry): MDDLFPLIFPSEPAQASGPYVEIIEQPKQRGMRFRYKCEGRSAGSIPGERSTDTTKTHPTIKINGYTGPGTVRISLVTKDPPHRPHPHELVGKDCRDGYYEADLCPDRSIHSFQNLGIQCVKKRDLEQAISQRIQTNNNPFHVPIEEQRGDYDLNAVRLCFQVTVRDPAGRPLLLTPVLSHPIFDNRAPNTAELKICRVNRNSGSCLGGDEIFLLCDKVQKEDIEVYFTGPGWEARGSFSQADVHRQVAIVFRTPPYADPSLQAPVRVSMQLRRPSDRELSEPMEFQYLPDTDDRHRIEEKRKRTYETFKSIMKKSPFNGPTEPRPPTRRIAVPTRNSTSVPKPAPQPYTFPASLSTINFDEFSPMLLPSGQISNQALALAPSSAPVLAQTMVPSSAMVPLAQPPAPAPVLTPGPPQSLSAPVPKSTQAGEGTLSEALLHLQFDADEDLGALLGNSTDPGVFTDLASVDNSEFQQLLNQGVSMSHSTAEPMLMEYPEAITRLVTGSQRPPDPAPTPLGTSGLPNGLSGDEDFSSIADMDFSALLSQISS

Row | Compound | inhibition [1] | inhibition [2] | Activity [3] | IC50 [4] [µM] | inhibition [5] | inhibition [6] | inhibition [7] [%] | inhibition [8] [%] | inhibition [9] [%] | inhibition [10] [%] | inhibition [11] | Activity [12] | inhibition [13] | inhibition [14] | inhibition [15] | IC50 [16] [µM] | inhibition [17] | inhibition [18] | inhibition [19] | inhibition [20]
1 | Cc1ccc(S(=O)(=O)N[C@@H](Cc2ccccc2)C(=O)CCl)cc1 | Active |  |  |  |  |  |  |  |  |  |  |  |  |  |  |  |  |  |  | 
2 | CC1=C(CCc2ccoc2)[C@@]2(C)CC[C@@H](O)C(C)(C)[C@@H]2CC1=O |  | Dose-dependent effect | Non-toxic | 27 | Dose-dependent effect | Dose-dependent effect | 20.9 | 56.6 | 69.1 | 90.3 | Active | Active | Dose-dependent effect | Dose-dependent effect | Dose-dependent effect | 38.5 | Active | Active | Active | Active
